# Publication PMC3576085 (The Journal of Biological Chemistry, 2012)
# Molecular target: T1, CBM65B (EcCel5A) ([Eubacterium] cellulosolvens, UniProt Q3LHN3)
# T1 sequence (Q3LHN3 581-713): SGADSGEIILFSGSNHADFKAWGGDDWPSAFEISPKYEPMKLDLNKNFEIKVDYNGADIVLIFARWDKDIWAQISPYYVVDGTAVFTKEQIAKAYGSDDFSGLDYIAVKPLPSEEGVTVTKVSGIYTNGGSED
# Assay: ITC
# Type: binding
# Conditions: 50 mM Na-HEPES pH 7.5, 25 °C; n 1
smiles,measurement,value
"OC[C@H]1O[C@@H](O[C@H]2[C@H](O)[C@@H](O)[C@H](O[C@H]3[C@H](O)[C@@H](O)[C@H](O[C@H]4[C@H](O)[C@@H](O)[C@H](O[C@H]5[C@H](O)[C@@H](O)[C@H](O[C@H]6[C@H](O)[C@@H](O)C(O)O[C@@H]6CO)O[C@@H]5CO)O[C@@H]4CO)O[C@@H]3CO)O[C@@H]2CO)[C@H](O)[C@@H](O)[C@@H]1O (stereo partly shown) [C6, cellohexaose]",Ka,2.3 (±0.2) x 10^3
